Laboratory results as given in EP2070923A1, “Insecticide iminoheterocycles” (priority 2007, dated 2009).
Like-named read-outs stand apart in the source and are kept apart here.

Experiments:
Myzus persicae = assay: Myzus test (spray treatment); format: in vivo; conditions: foliar, read-out: Wirkung
Source text: Myzus-Test (Spritzbehandlung)
(§1) Zur Herstellung einer zweckmäßigen Wirkstoffzubereitung vermischt man 1 Gewichtsteil Wirkstoff mit den angegebenen Mengen Lösungsmittel und Emulgator und verdünnt das Konzentrat mit emulgatorhaltigem Wasser auf die gewünschte Konzentration. Chinakohlblattscheiben (Brassica pekinensis), die von allen Stadien der Grünen Pfirsichblattlaus (Myzus persicae) befallen sind, werden mit einer Wirkstoffzubereitung der gewünschten Konzentration gespritzt. Nach der gewünschten Zeit wird die Wirkung in % bestimmt. Dabei bedeutet 100 %, dass alle Blattläuse abgetötet wurden; 0 % bedeutet, dass keine Blattläuse abgetötet wurden. Bei diesem Test zeigen z. B. die folgenden Verbindungen der Herstellungsbeispiele eine Wirkung von ≥ 80 % bei einer Aufwandmenge von 500 g/ha: • Bsp. Nr. 2, 3, 31, 32, 33, 36, 37, 39, 40, 41, 42, 43, 44, 45, 46, 63, 64, 65, 66, 86, 87, 88, 90, 95, 96, 97, 99, 103

logP (HCOOH) = conditions: hplc, formic acid
physchem = conditions: hplc, formic acid
Meloidogyne incognita = assay: Meloidogyne test (spray treatment), gall formation on lettuce roots; format: in vivo; conditions: 20 ppm; 100 % = no galls found
Source text: Meloidogyne-Test (Spritzbehandlung)
Zur Herstellung einer zweckmäßigen Wirkstoffzubereitung vermischt man 1 Gewichtsteil Wirkstoff mit der angegebenen Menge Lösungsmittel und verdünnt das Konzentrat mit Wasser auf die gewünschte Konzentration. Gefäße werden mit Sand, Wirkstofflösung, Meloidogyne incognita-Ei-Larven-Suspension und Salatsamen gefüllt. Die Salatsamen keimen und die Pflänzchen entwickeln sich. An den Wurzeln entwickeln sich die Gallen. Nach der gewünschten Zeit wird die nematizide Wirkung an Hand der Gallenbildung in % bestimmt. Dabei bedeutet 100 %, dass keine Gallen gefunden wurden; 0 % bedeutet, dass die Zahl der Gallen an den behandelten Pflanzen der der unbehandelten Kontrolle entspricht. Bei diesem Test zeigen z. B. die folgenden Verbindungen der Herstellungsbeispiele eine Wirkung von ≥ 80 % bei einer Aufwandmenge von 20 ppm: • Bsp. Nr. 15, 16, 18

Boophilus microplus = Boophilus microplus test (injection); format: in vivo; conditions: 20 µg/Tier; injection into abdomen; 100 % = no tick laid fertile eggs
Source text: Boophilus microplus -Test (Injektion)
Zur Herstellung einer zweckmäßigen Wirkstoffzubereitung vermischt man 1 Gewichtsteil Wirkstoff mit der angegebenen Menge Lösungsmittel und verdünnt das Konzentrat mit Lösungsmittel auf die gewünschte Konzentration. Die Wirkstofflösung wird in das Abdomen (Boophilus microplus) injiziert, die Tiere werden in Schalen überführt und in einem klimatisierten Raum aufbewahrt. Nach der gewünschten Zeit wird die Wirkung in % bestimmt. Dabei bedeutet 100%, dass keine Zecke fertile Eier gelegt hat. Bei diesem Test zeigen z. B. die folgenden Verbindungen der Herstellungsbeispiele eine Wirkung von = 80 % bei einer Aufwandmenge von 20 µg/Tier: • Bsp. Nr. 43, 44, 45, 46, 63, 64, 65, 66

Tetranychus urticae = assay: Tetranychus test, OP-resistant (spray treatment); format: in vivo; conditions: foliar, spray on Phaseolus vulgaris leaf discs, 100 % = all spider mites killed, read-out: Wirkung
Source text: Tetranychus-Test, OP-resistent (Spritzbehandlung)
as §1, with “Bohnenblattscheiben (Phaseolus vulgaris),” for “Chinakohlblattscheiben (Brassica pekinensis),”, “Gemeinen Spinnmilbe (Tetranychus urticae)” for “Grünen Pfirsichblattlaus (Myzus persicae)”, “Spinnmilben” for “Blattläuse”, “100” for “500”, “83” for “2, 3, 31, 32, 33, 36, 37, 39, 40, 41, 42, 43, 44, 45, 46, 63, 64, 65, 66, 86, 87, 88, 90, 95, 96, 97, 99, 103”

[1] = 500 g/ha, spray on Brassica pekinensis leaf discs, 100 % = all aphids killed

CCNC(=S)N1CCO/C1=N/C(C)c1ccccn1 (centres unmarked) [Beispiel 2, (2E)-N-ethyl-2-[(1-pyridin-2-ylethyl)imino]-1,3-oxazolidine-3-carbothioamid]
mortality at 500 g/ha (Myzus persicae; [1]): ≥ 80%
chromatographic logP (logP (HCOOH)): 1.26

COCCNC(=S)N1CCOC1=NC(C)c1ccccn1 (centres unmarked) [Beispiel 3]
mortality at 500 g/ha (Myzus persicae; [1]): ≥ 80%
chromatographic logP (logP (HCOOH)): 1.12

CCC(N=C1NCCO1)c1ccc(C(F)(F)F)cn1 (centres unmarked) [Beispiel 4]
chromatographic logP (physchem): 0.97

CCC(N=C1OCCN1C(=O)NCCCl)c1ccc(C(F)(F)F)cn1 (centres unmarked) [Beispiel 5]
chromatographic logP (logP (HCOOH)): 2.15

CCC(N=C1OCCN1C(=S)NCCOC)c1ccc(C(F)(F)F)cn1 (centres unmarked) [Beispiel 6]
chromatographic logP (logP (HCOOH)): 3.69

CCNC(=S)N1CCOC1=NC(CC)c1ccc(C(F)(F)F)cn1 (centres unmarked) [Beispiel 7]
chromatographic logP (logP (HCOOH)): 3.85

CCC(N=C1NCCO1)c1ccc(C)c(C)n1 (centres unmarked) [Beispiel 8]
chromatographic logP (physchem): 0.06

CCC(N=C1OCCN1C(=O)NCCCl)c1ccc(C)c(C)n1 (centres unmarked) [Beispiel 9]
chromatographic logP (logP (HCOOH)): 1.18

CCNC(=S)N1CCOC1=NC(CC)c1ccc(C)c(C)n1 (centres unmarked) [Beispiel 10]
chromatographic logP (logP (HCOOH)): 1.14

CCC(N=C1OCCN1C(=S)NCCOC)c1ccc(C)c(C)n1 (centres unmarked) [Beispiel 11]
chromatographic logP (logP (HCOOH)): 1.33

CCC(N=C1NCCO1)c1ccccn1 (centres unmarked) [Beispiel 12]
chromatographic logP (physchem): -0.01

CCNC(=S)N1CCOC1=NC(CC)c1ccccn1 (centres unmarked) [Beispiel 13]
chromatographic logP (logP (HCOOH)): 1.53

CCNC(=S)N1CCOC1=NC(C)c1cccnc1 (centres unmarked) [Beispiel 15]
nematizide Wirkung an Hand der Gallenbildung (Meloidogyne incognita): ≥ 80%
chromatographic logP (logP (HCOOH)): 1.16

COCCNC(=S)N1CCOC1=NC(C)c1cccnc1 (centres unmarked) [Beispiel 16]
nematizide Wirkung an Hand der Gallenbildung (Meloidogyne incognita): ≥ 80%
chromatographic logP (logP (HCOOH)): 1.07

CCNC(=S)N1CCOC1=NC(C)c1ccncc1 (centres unmarked) [Beispiel 18]
nematizide Wirkung an Hand der Gallenbildung (Meloidogyne incognita): ≥ 80%
chromatographic logP (logP (HCOOH)): 1.07

COCCNC(=S)N1CCOC1=NC(C)c1ccncc1 (centres unmarked) [Beispiel 19]
chromatographic logP (logP (HCOOH)): 1

CCC(N=C1OCCN1C(=S)NCCOC)c1cc(Br)cs1 (centres unmarked) [Beispiel 30]
chromatographic logP (logP (HCOOH)): 4.48

CCNC(=S)N1CCOC1=NC(CC)c1cc(Br)cs1 (centres unmarked) [Beispiel 31]
mortality at 500 g/ha (Myzus persicae; [1]): ≥ 80%
chromatographic logP (logP (HCOOH)): 4.72

c1cc(CN=C2NCCO2)cs1 [Beispiel 32]
mortality at 500 g/ha (Myzus persicae; in Brassica rapa): ≥ 80%
chromatographic logP (physchem): -0.05

CCNC(=S)N1CCOC1=NCc1ccsc1 [Beispiel 33]
mortality at 500 g/ha (Myzus persicae; [1]): ≥ 80%
chromatographic logP (logP (HCOOH)): 2.56

COCCNC(=S)N1CCOC1=NCc1ccsc1 [Beispiel 34]
chromatographic logP (logP (HCOOH)): 2.71

CNC(=S)N1CCOC1=NCc1ccsc1 [Beispiel 35]
chromatographic logP (logP (HCOOH)): 1.83

CC(N=C1NCCO1)c1cccs1 (centres unmarked) [Beispiel 36]
mortality at 500 g/ha (Myzus persicae; in Brassica rapa): ≥ 80%
chromatographic logP (physchem): 0.28

C[C@H](N=C1NCCO1)c1cccs1 [Beispiel 37]
mortality at 500 g/ha (Myzus persicae; in Brassica rapa): ≥ 80%
chromatographic logP (physchem): 0.33

c1csc(CN=C2NCCO2)c1 [Beispiel 39]
mortality at 500 g/ha (Myzus persicae; in Brassica rapa): ≥ 80%
chromatographic logP (physchem): -0.08

CNC(=S)N1CCOC1=NCc1cccs1 [Beispiel 40]
mortality at 500 g/ha (Myzus persicae; [1]): ≥ 80%
chromatographic logP (logP (HCOOH)): 2.45

COCCNC(=S)N1CCOC1=NCc1cccs1 [Beispiel 42]
mortality at 500 g/ha (Myzus persicae; [1]): ≥ 80%
chromatographic logP (logP (HCOOH)): 2.84

CNC(=S)N1CCOC1=NC(C)c1cccs1 (centres unmarked) [Beispiel 43]
mortality at 500 g/ha (Myzus persicae; [1]): ≥ 80%
Wirkung (Boophilus microplus): 80%
chromatographic logP (logP (HCOOH)): 2.99

CCNC(=S)N1CCOC1=NC(C)c1cccs1 (centres unmarked) [Beispiel 44]
mortality at 500 g/ha (Myzus persicae; [1]): ≥ 80%
Wirkung (Boophilus microplus): 80%
chromatographic logP (logP (HCOOH)): 3.58

COCCNC(=S)N1CCOC1=NC(C)c1cccs1 (centres unmarked) [Beispiel 45]
mortality at 500 g/ha (Myzus persicae; [1]): ≥ 80%
Wirkung (Boophilus microplus): 80%
chromatographic logP (logP (HCOOH)): 3.28

CC(N=C1OCCN1C(=S)NCC(F)(F)F)c1cccs1 (centres unmarked) [Beispiel 46]
mortality at 500 g/ha (Myzus persicae; [1]): ≥ 80%
Wirkung (Boophilus microplus): 80%
chromatographic logP (logP (HCOOH)): 3.99

CNC(=S)N1CCOC1=N[C@@H](C)c1cccs1 [Beispiel 63]
mortality at 500 g/ha (Myzus persicae; [1]): ≥ 80%
Wirkung (Boophilus microplus): 80%
chromatographic logP (logP (HCOOH)): 3.02

CCNC(=S)N1CCOC1=N[C@@H](C)c1cccs1 [Beispiel 64]
mortality at 500 g/ha (Myzus persicae; [1]): ≥ 80%
Wirkung (Boophilus microplus): 80%
chromatographic logP (logP (HCOOH)): 3.59

C[C@H](N=C1OCCN1C(=S)NCC(F)(F)F)c1cccs1 [Beispiel 66]
mortality at 500 g/ha (Myzus persicae; [1]): ≥ 80%
Wirkung (Boophilus microplus): 80%
chromatographic logP (logP (HCOOH)): 3.98

CCn1ccc(C(C)N=C2OCCN2C(=S)NC)n1 (centres unmarked) [Beispiel 76]
chromatographic logP (logP (HCOOH)): 1.45

Cn1cccc1CN=C1NCCO1 [Beispiel 80]
chromatographic logP (physchem): -0.09

COCCNC(=S)N1CCOC1=NCc1cccn1C [Beispiel 83]
mortality at 100 g/ha (Tetranychus urticae): ≥ 80%
chromatographic logP (logP (HCOOH)): 2.37

CCC(N=C1OCCN1C(=S)NC)c1cccs1 (centres unmarked) [Beispiel 86]
mortality at 500 g/ha (Myzus persicae; [1]): ≥ 80%
chromatographic logP (logP (HCOOH)): 3.46

CCNC(=S)N1CCOC1=NC(CC)c1cccs1 (centres unmarked) [Beispiel 87]
mortality at 500 g/ha (Myzus persicae; [1]): ≥ 80%
chromatographic logP (logP (HCOOH)): 4.06

CCC(N=C1OCCN1C(=S)NCCOC)c1cccs1 (centres unmarked) [Beispiel 88]
mortality at 500 g/ha (Myzus persicae; [1]): ≥ 80%
chromatographic logP (logP (HCOOH)): 3.71

c1coc(CN=C2NCCO2)c1 [Beispiel 90]
mortality at 500 g/ha (Myzus persicae; in Brassica rapa): ≥ 80%
chromatographic logP (physchem): -0.23

CNC(=S)N1CCOC1=NCc1ccco1 [Beispiel 91]
chromatographic logP (logP (HCOOH)): 1.89

CCNC(=S)N1CCOC1=NCc1ccco1 [Beispiel 92]
chromatographic logP (logP (HCOOH)): 2.58

COCCNC(=S)N1CCOC1=NCc1ccco1 [Beispiel 93]
chromatographic logP (logP (HCOOH)): 2.84

FC(F)(F)CNC(=S)N1CCOC1=NCc1ccco1 [Beispiel 94]
chromatographic logP (logP (HCOOH)): 3.29

CC(N=C1NCCO1)c1ccco1 (centres unmarked) [Beispiel 95]
mortality at 500 g/ha (Myzus persicae; in Brassica rapa): ≥ 80%

CNC(=S)N1CCOC1=NC(C)c1ccco1 (centres unmarked) [Beispiel 96]
mortality at 500 g/ha (Myzus persicae; [1]): ≥ 80%
chromatographic logP (logP (HCOOH)): 2.38

C[C@H](N=C1NCCS1)c1cccs1 [Beispiel 101]
chromatographic logP (physchem): 0.54

CC(N=C1NCCO1)c1cc2ccccc2o1 (centres unmarked) [Beispiel 103]
mortality at 500 g/ha (Myzus persicae; in Brassica rapa): ≥ 80%
chromatographic logP (physchem): 0.93

CNC(=S)N1CCOC1=NC(C)c1cc2ccccc2o1 (centres unmarked) [Beispiel 104]
chromatographic logP (logP (HCOOH)): 3.64

CCNC(=S)N1CCOC1=NC(C)c1cc2ccccc2o1 (centres unmarked) [Beispiel 105]
chromatographic logP (logP (HCOOH)): 4.18

COCCNC(=S)N1CCOC1=NC(C)c1cc2ccccc2o1 (centres unmarked) [Beispiel 106]
chromatographic logP (logP (HCOOH)): 3.9

CC(N=C1OCCN1C(=S)NCC(F)(F)F)c1cc2ccccc2o1 (centres unmarked) [Beispiel 107]
chromatographic logP (logP (HCOOH)): 4.47

CCNC(=S)N1CCOC1=NC(CC)c1ccc(Cl)s1 (centres unmarked) [Beispiel 108]
chromatographic logP (logP (HCOOH)): 4.96

CC(C)NC(=S)N1CCOC1=NCc1ccc(Cl)nc1 [Beispiel 187]
chromatographic logP (physchem): 3.14

CCOC(=O)CNC(=S)N1CCOC1=NCc1ccc(Cl)nc1 [Beispiel 188]
chromatographic logP (logP (HCOOH)): 2.54

CC(N=C1NCCO1)c1ccnc(Cl)c1 (centres unmarked) [Beispiel 194]
chromatographic logP (physchem): 0.02

CNC(=S)N1CCOC1=NC(C)c1ccnc(Cl)c1 (centres unmarked) [Beispiel 195]
chromatographic logP (logP (HCOOH)): 2.58

CCNC(=S)N1CCOC1=NC(C)c1ccnc(Cl)c1 (centres unmarked) [Beispiel 196]
chromatographic logP (logP (HCOOH)): 3.07

COCCNC(=S)N1CCOC1=NC(C)c1ccnc(Cl)c1 (centres unmarked) [Beispiel 197]
chromatographic logP (logP (HCOOH)): 2.83

CCOC(=O)CNC(=S)N1CCOC1=NC(C)c1ccnc(Cl)c1 (centres unmarked) [Beispiel 198]
chromatographic logP (logP (HCOOH)): 3.14
